Columns and labels:
FcgRIIA on neutrophils = assay: FcgRIIA shedding, fluorimetry of shed antibody-FcgRIIA complexes in supernatant; assay type: cell-based, human; details: pre-labeled neutrophils, R848 stimulation
Description: To assess if reduction in FcgRIIA cell surface expression was dependent on proteolytic cleavage or internalization of the receptor, we analyzed total FcgRIIA expression in fixed permeabilized neutrophils. Specifically, neutrophils were activated with R848 and FcgRIIA levels analyzed in permeabilized cells by flow cytometry. The experiment was repeated five times and compared using paired t test (P=0.0075). […] Specifically, FcgRIIA cell surface expression was analyzed by flow cytometry using two antibodies, FUN2 and IV.3, in non-stimulated and R848-stimulated neutrophils. The experiment was repeated six times; combined results were compared using paired t test (P<0.0001). […] For this experiment, neutrophils were labeled with FITC-conjugated IV.3 anti-FcgRIIA or anti-FUN-2 antibodies and the shed antibody-FcgRIIA complex quantified by fluorimetry following R848 stimulation with or without prior addition of a pan-protease inhibitor. […]
For detection of shed FcgRIIA, neutrophils were pre-labeled with FITC-conjugated anti-CD32A antibody IV.3 (Stemcell Technologies) or FITC-conjugated anti-CD32A antibody FUN-2 (Biolegend), and washed extensively prior to activation with R848. Cell free supernatant was analyzed for shed FcgRIIA-anti-CD32A-FITC complexes by flourimetry (Synergy 2, BioTek) using anti-CD32A antibodies as a standard curve. […]

FcgRIIA on monocytes = assay: FcgRIIA and CD11b on monocytes (PBMCs with R848, neutrophils or neutrophil supernatant); assay type: cell-based, human
Description: Since we observed prominent protease-mediated shedding of FcgRIIA in neutrophils, we next asked if activated neutrophils could induce shedding of FcgRIIA in other immune cells. PBMCs were co-incubated with neutrophils (PMNs) in the presence of R848 and a pan-protease inhibitor. Levels of FcgRIIA on monocytes (CD14+), and pDCs (CD304+) were determined by flow cytometry and expressed as FcgRIIA (% of control) as compared to PBMCs incubated in medium in absence of neutrophils. […]
To determine if the loss of monocyte FcgRIIA was mediated through cell-cell interactions or due to a soluble neutrophil-derived factor, we added supernatant from TLR7/8-activated neutrophils to monocytes. Specifically, neutrophil supernatant, derived from non-stimulated (no, n=5) or R848-stimulated (R848, n=9) neutrophils, were added to monocytes in presence of indicated inhibitors (CMK; furin inhibitor, n=5, and Pan; pan-protease inhibitor, n=5) and monocyte FcgRIIA levels analyzed by flow cytometry. […]
Neutrophils and PBMCs were incubated at a 2:1 ratio (500,000 vs 250,000 cells) with the pan-protease inhibitor (1×) for 30 minutes followed by R848 (2 μg/mL) for an additional 60 minutes and analyzed for FcgR levels by flow cytometry. […]

## CCOCc1nc2c(N)nc3ccccc3c2n1CC(C)(C)O [R848]
FcgRIIA on neutrophils
  cell-free FcgRIIA-IV.3 (anti-CD32A) complexes in supernatant: detected in increased amounts in the cell-free supernatant
FcgRIIA on monocytes; R848
  monocyte cell surface CD11b: up-regulation of cell surface CD11b
FcgRIIA on monocytes; flow cytometry
  monocyte cell surface FcgRIIA levels: unchanged
